Consider one compound from paper PMC6399176, “Assembly of a heterodinuclear Mn/Fe cofactor is coupled to tyrosine–valine ether cross-link formation in the R2-like ligand-binding oxidase” (Journal of Biological Inorganic Chemistry, 2019).

In the assay the target is T1, R2loxI (R2-like ligand-binding oxidase, R2lox) (Geobacillus kaustophilus, UniProt Q5KW80, A171F).
T1 construct: gene GK2771; full-length, N-terminal hexahistidine tag, pET-46 Ek/LIC, E. coli BL21(DE3), purified metal-free
Nature of the assay: X-ray crystallography. The conditions noted are these: oxidized resting state, Mn/Fe-soaked crystal; ligand co-purified, further up in the tunnel, not at the metals; modelled as C8 acid from partial density, true identity and chain length uncertain.

T1 sequence (Q5KW80 entry or part of it A171F): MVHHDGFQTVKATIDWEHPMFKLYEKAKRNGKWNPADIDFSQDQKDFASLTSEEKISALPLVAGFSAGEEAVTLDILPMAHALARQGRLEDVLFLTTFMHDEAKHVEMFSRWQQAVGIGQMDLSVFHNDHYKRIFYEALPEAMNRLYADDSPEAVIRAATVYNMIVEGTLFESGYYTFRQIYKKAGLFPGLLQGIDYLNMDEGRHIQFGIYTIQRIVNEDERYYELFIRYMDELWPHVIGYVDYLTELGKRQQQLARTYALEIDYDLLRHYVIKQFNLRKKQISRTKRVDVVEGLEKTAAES

`CCCCCCCC(=O)O` [caprylic (C8) acid]: the X-ray crystallography result was “could only reasonably be modeled (as caprylic (C8) acid) in the oxidized state”.
